From patent US10143747B2, “Breast cancer therapeutics” (IMBA—INSTITUT FÜR MOLEKULARE BIOTECHNOLOGIE GMBH, priority 2010, dated 2018)

B1: RANKL: recombinant RANKL protein, ligand of RANK, used as stimulus (1 μg/ml or 1 μg i.p.) (protein, UniProt O35235 139-316, looked up)
Tumor necrosis factor ligand …: FSGAPAMMEGSWLDVAQRGKPEAQPFAHLTINAASIPSGSHKVTLSSWYHDRGWAKISNMTLSNGKLRVNQDGFYYLYANICFRHHETSGSVPTDYLQLMVYVVKTSIKIPSSHNLMKGGSTKNWSGNSEFHFYSINVGGFFKLRAGEEISIQVSNPSLLDPDQDATYFGAFKVQDID

Assays:
RANKL = RANKL mRNA in purified mammary epithelial cells by qRT-PCR after MPA pellet implantation; type: in vivo, mouse
Procedure: a,b, Induction of RANKL expression by the progesterone-derivative MPA. Nulliparous wild type females were s.c. implanted with slow-release MPA pellets or treated with surgery sham. a, RANKL mRNA was determined in purified mammary epithelial cells by qRT-PCR three days after implantation. Data are shown as fold change compared to sham treatment (+/−sem) (n=3). b, In situ […] immunostaining of progesterone receptor (PR, red) and RANKL (green) in mammary epithelial cells after 3d MPA treatment. c, Induction of soluble RANKL protein assayed on isolated mammary gland epithelial cells from control, but not in prolactin receptor mutant (PRL-R KO) females on day 3 after s.c. MPA implantation. Mammary glands from sham operated control litter-mates and PRL-R KO females are shown as controls. d, Epithelial proliferation in mammary glands of control littermates and RANK^Δmam females 3 days after sham treatment and MPA implantation. Proliferation was determined by in situ Ki67 immunostaining. e,f, Marked increase of the stem cell-enriched CD24^+CD49^high population (MaSC) in MPA-treated mammary glands in control but not in RANK^Δmam mammary glands. e, Representative FACS profiles showing CD24 and CD49 expression of lineage negative (CD31^− (endothelial cells) CD45^− (hematopoietic cells) […] (erythroid cells)) of mammary MaSCs from MPA- or sham-treated 8-week old virgin females. f, Quantification of MaSC-enriched CD24^+CD49^high population from mammary glands of MPA- or sham-treated virgin RANK^Δmam and littermate control females. For all MaSCs experiments mice were treated with MPA for 3 days. n=4 per group+/−sem. *P<0.05; ***P<0.001 (Student's t-test).
a-d, Induction of RANKL expression by the progesterone-derivative MPA. […] Numbers indicate amino acid residues. c, Expression of total (t) RANKL, RANKL1, RANKL2, and RANKL3 mRNA in purified mammary epithelial cells after three days MPA treatment. β-actin is shown as a control. d, Representative agarose gel of RT-PCR products as in c. e, mRNA expression of various proteases known to shed RANKL from the surface of cells. mRNA was determined in purified mammary epithelial cells by qRT-PCR three days after MPA implantation. […]
a,b, MPA induces RANKL expression in mammary epithelial cells. Nulliparous wild type females were treated with oral gavage of DMBA or oil vehicle, s.c. implanted with slow-release MPA pellets, or treated with sham surgery. a, RANKL mRNA was determined in purified mammary epithelial cells by qRT-PCR 3 days after implantation/oral gavage. […]

[1] = test system: SKBR3 breast cancer cells; test: Growth curve of SKBR3 cells, live cell counting; type: cell-based, human; conditions: RANKL 1 μg/ml, 3 days
Procedure: a, Western blotting for phosphorylated (P) p65 NFκB, total p65 NFκB, phosphorylated (P) IκBα, total IκBα, phosphorylated (P) ERK1/2, total ERK1/2, phosphorylated (P) p38-MAPK, and p38-MAPK in human SKBR3 breast cancer cells in response to RANKL stimulation (1 μg/ml). Data are representative of 3 experiments. b, Growth curve of SKBR3 breast cancer cells cultured in normal growth medium (control, DMEM supplemented with 10% FCS) or in the presence of RANKL (1 μg/ml). Cell numbers were determined by counting live cells (trypan blue-exclusion) over 3 days. c, Onset of palpable mammary tumors in NFATc1^Δmam (n=10) and age matched littermate control (n=16) females treated with MPA pellets and DMBA. Data are shown as percentage of tumor free mice after the last DMBA challenge. No significant difference was found. d, Quantification of NFATc1 mRNA expression in purified mammary epithelial cells (MECs) and MPA-driven mammary tumors from NFATc1^Δmam and littermate control females. mRNA was determined by qRT-PCR. Data are shown as fold change compared to control (+/−sem). n=5 Per group. *P<0.05 (Student's t-test).

Row | Molecule | mRNA of proteases known to shed RANKL (MMP14, ADAM17/TACE) (RANKL; 3 days after MPA implantation, qRT-PCR) | RANKL mRNA and protein expression in purified mammary epithelial cells (RANKL; 3 days after implantation/oral gavage, qRT-PCR and Western blot) | mRNA expression of RANK, OPG, PTHrP and TRAIL in isolated mammary epithelial cells (RANKL; MPA pellets implanted) | induction of RANKL mRNA in isolated mammary epithelial cells (RANKL; s.c. slow-release MPA pellets, 3 days, vs sham, wild type females) | proliferation of SKBR3 cells [1]
1 | CC(=O)O[C@]1(C(C)=O)CC[C@H]2[C@@H]3C[C@H](C)C4=CC(=O)CC[C@]4(C)[C@H]3CC[C@@]21C [MPA, medroxyprogesterone acetate] | induction of MMP14 and ADAM17/TACE | induced RANKL mRNA and protein expression | not changed | more than 2000 fold | 
2 | B1 |  |  |  |  | induced NFκB, p38-MAPKs and ERK activation and proliferation
